This is an account of results in patent US8618101B2, “N-((1R,2S,5R)-5-(tert-butylamino)-2-((S)-3-(7-tert-butylpyrazolo[1,5-a][1,3,5]triazin-4-ylamino)-2-oxopyrrolidin-1-yl)cyclohexyl)acetamide, a dual modulator of chemokine receptor activity, crystalline forms and processes” (Bristol-Myers Squibb Company, priority 2009, dated 2013).

Structures are written as SMILES. Like-named read-outs stand apart in the source and are kept apart here.

Series [1] can be described thus: Plasma levels of Example 1 and mouse MCP-1 in the 48-hour TG peritonitis model. The class given is in vivo. The conditions noted are these: mouse, read-out: Concentration of free Example 1 in plasma (nM) (fold IC90 CCR-2 binding). How it is done:
For the 48-hour TG peritonitis study, Example 1 was dosed twice a day with the first dose one hour prior to TG injection. Total peritoneal cell counts were obtained on isolated cells by a cell counter. Cytospins were performed to determine differential leukocyte counts. The cells were stained for 3 minutes with Wright-Giemsa Stain (Sigma-Aldrich) and then rinsed with deionized water for 5 minutes. Differential counts were calculated based on a total of 200 cells counted per sample. Blood was also collected from the retro-orbital sinus at the end of each study in EDTA for determination of drug concentration.
The caveat for this estimation is that only CCR-2 and its major ligand MCP-1 were taken into consideration. The receptor occupancy of a ligand in the presence of a competitive inhibitor is defined by the Gaddum equation: […]

A further series has as its target T1, hERG (Homo sapiens, UniProt Q12809).
T1 construct: expressed in transfected cells; host or cells: HEK293
Description: hERG Flux (Tl+ flux, FLIPR). The series is classed as cell-based. The conditions noted are these: HEK293 cells expressing hERG. How it is done:
HEK293 cells stably-expressing hERG channels were grown (37° C., 5% CO2) in Dulbecco's Modified Eagle's Media supplemented with 10% Sigma fetal bovine serum, non-essential amino acids, 2 mM L-glutamine and 500 μg/ml G418, at incubator. Cell dissociation buffer was used to extract the cells from flasks, which were then plated into 384-well CORNING® poly-D-lysine coated black/clear plates at a density of 2×10^4 cells per well (20 μl) in 10% serum media, and incubated for 15-24 hours at 37° C. in a 5% CO2 incubator until a confluent monolayer of cells was obtained. […]
The test compound was diluted to 10 mM DMSO in 60 μl. […] Assay-ready plates were generated by stamping 2.5 μl from the DMSO serially diluted plate, which was prepared on the Velocity 11 BIOCEL®. Aqueous plates were created by adding 48 μl of EP buffer and then were diluted 30-45 minutes before the assay was read on the FLIPR®. […] Assay-ready aqueous plates were prepared and diluted on a CyBio liquid handler.
Cells loaded with dye were read on the FLIPR®384 (Molecular Devices, Sunnyvale, Calif.), which excites the dye using the 488 nm line of an argon laser. […]
The dynamic range of the assay was determined from blanks and totals wells. […] Data were analyzed by fitting maximum amplitudes of change in fluorescence for Tl^+ flux for a given condition of test compound.

The nature of series [2]: Single-dose pharmacokinetics in rats. The conditions noted are these: male, Sprague-Dawley, rat.
Description: Male Sprague-Dawley rats (250-300 g) were used for the pharmacokinetic studies. Rats were fasted overnight prior to PO dosing and fed 4 h post dose. Blood samples (˜0.3 mL) were collected from the jugular vein into K2EDTA-containing tubes and then centrifuged at 4° C. (1500-2000×g) to obtain plasma. […] Serial blood samples were obtained at 0.17 (for IV only), 0.25, 0.5, 0.75, 1, 2, 4, 6, 8, and 24 h post dose. Plasma samples, obtained by centrifugation at 4° C. (1500-2000×g), were stored at −20° C. until analysis by LC/MS/MS.
The pharmacokinetic parameters were obtained by non-compartmental analysis of plasma concentration vs. time data (Kinetica software, Version 4.2, InnaPhase Corporation, Philadelphia, Pa.). The peak concentration (Cmax) and time for Cmax were recorded directly from experimental observations. The area under the curve from time zero to the last sampling time (AUC(0-T)) was calculated using a combination of linear and log trapezoidal summations. The total plasma clearance (CLTp), steady-state volume of distribution (Vss), apparent elimination half-life (T½) and mean residence time (MRT) were estimated after IV administration. Estimations of T½ was made using a minimum of 3 time points with quantifiable concentrations. The absolute oral bioavailability (F) was estimated as the ratio of dose-normalized AUC values following oral and IV doses.

T1 sequence (Q12809 whole entry): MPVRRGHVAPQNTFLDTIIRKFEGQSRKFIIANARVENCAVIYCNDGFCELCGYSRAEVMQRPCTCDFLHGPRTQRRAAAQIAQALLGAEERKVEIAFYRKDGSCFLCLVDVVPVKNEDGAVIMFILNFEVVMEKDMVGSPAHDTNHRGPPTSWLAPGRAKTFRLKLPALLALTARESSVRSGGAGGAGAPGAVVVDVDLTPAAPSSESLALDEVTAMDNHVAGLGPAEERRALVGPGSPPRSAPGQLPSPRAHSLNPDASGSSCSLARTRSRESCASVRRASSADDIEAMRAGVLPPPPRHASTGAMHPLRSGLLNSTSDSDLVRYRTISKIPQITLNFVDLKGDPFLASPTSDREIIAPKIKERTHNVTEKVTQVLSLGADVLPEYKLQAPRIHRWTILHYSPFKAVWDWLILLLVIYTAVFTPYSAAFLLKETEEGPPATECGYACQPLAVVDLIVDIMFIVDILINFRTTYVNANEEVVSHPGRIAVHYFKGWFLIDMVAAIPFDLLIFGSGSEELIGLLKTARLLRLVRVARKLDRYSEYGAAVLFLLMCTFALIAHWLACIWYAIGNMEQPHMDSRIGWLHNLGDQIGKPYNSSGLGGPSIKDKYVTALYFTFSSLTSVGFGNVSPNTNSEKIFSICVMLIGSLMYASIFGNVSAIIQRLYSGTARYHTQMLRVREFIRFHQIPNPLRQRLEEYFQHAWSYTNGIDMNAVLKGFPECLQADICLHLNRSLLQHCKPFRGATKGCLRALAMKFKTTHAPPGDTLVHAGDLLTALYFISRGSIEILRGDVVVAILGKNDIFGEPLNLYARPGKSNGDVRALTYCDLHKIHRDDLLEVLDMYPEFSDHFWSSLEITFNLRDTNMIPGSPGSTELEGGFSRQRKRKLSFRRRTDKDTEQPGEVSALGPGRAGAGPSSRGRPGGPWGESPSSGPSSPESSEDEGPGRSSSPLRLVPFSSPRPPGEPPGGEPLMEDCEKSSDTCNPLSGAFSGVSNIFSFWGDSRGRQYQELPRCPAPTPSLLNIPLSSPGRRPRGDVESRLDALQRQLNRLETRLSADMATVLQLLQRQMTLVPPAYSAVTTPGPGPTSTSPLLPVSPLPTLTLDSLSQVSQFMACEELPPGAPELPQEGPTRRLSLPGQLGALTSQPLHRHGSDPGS

`CC(=O)N[C@@H]1C[C@H](NC(C)(C)C)CC[C@@H]1N1CC[C@H](Nc2ncnc3cc(C(C)(C)C)nn23)C1=O` [Example 1, N-((1R,2 S,5R)-5-(tert-Butylamino)-2-((S)-3-(7-tert-butylpyrazolo[1,5-a][1,3,5]triazin-4-ylamino)-2-oxopyrrolidin-1-yl)cyclohexyl)acetamide]: the concentration at 48 h in series [1] (hCCR-2 KI, oral, 10 mg/kg) is 1.9 nM; in series [1] (hCCR-2 KI, oral, 50 mg/kg) it was 16.6 nM; in series [1] (hCCR-2 KI, oral, 200 mg/kg), 136 nM; in series [1] (160 mg/kg oral BID, 48 h, hCCR-2 KI mice), 62 nM. Besides, the IC50 against hERG was > 80 µM. In addition, the clearance in series [2] (in vivo, 2 mg/kg) worked out at 49.7 mL/min/kg. For the same compound, in series [2] (in vivo, 10 mg/kg), the bioavailability stood at 94%. This compound also returned an exposure (AUC) in series [2] (plasma, oral, 10 mg/kg) of 6.5 µM·h.
